Measurements: ChEMBL document CHEMBL3044578, “Synthesis, insecticidal activity, and molecular docking studies of nitenpyram analogues with a flexible ester arm anchored on tetrahydropyrimidine ring” (2011)
Values after ≈ are worked out from the molar mass of the structure shown.

How the values were obtained:
Assay type in all cases: functional
Nilaparvata lugens [1] = assay: Insecticidal activity against Nilaparvata lugens (brown planthopper) assessed as mortality at 20 mg/l after 72 hr
Nilaparvata lugens [2] = assay: Insecticidal activity against Nilaparvata lugens (brown planthopper) assessed as mortality at 100 mg/l after 72 hr
Nilaparvata lugens [3] = assay: Insecticidal activity against Nilaparvata lugens (brown planthopper) assessed as mortality at 500 mg/l after 72 hr
Nilaparvata lugens [4] = assay: Insecticidal activity against Nilaparvata lugens (brown planthopper) assessed as mortality after 72 hr

Row | Structure (SMILES) | mortality at 20 µg/mL (Nilaparvata lugens [1]) | mortality at 100 µg/mL (Nilaparvata lugens [2]) | mortality at 500 µg/mL (Nilaparvata lugens [3]) | LC50 (Nilaparvata lugens [4])
1 | CCCCOC(=O)CCCN1CC([N+](=O)[O-])=C(N(CC)Cc2ccc(Cl)nc2)N(C)C1 | 82% | 100% | 100% | 
2 | CCC(C)OC(=O)CCCN1CC([N+](=O)[O-])=C(N(CC)Cc2ccc(Cl)nc2)N(C)C1 (configuration not stated) | 59% | 93% | 100% | 
3 | CCN(Cc1ccc(Cl)nc1)C1=C([N+](=O)[O-])CN(CCCC(=O)OCC(C)C)CN1C | 54% | 100% | 100% | 
4 | CCN(Cc1ccc(Cl)nc1)C1=C([N+](=O)[O-])CN(CCCC(=O)OC(C)(C)C)CN1C | 36% | 68% | 100% | 
5 | CCC(C)OC(=O)CN1CC([N+](=O)[O-])=C(N(CC)Cc2ccc(Cl)nc2)N(C)C1 (configuration not stated) | 53% | 79% | 100% | 
6 | CCN(Cc1ccc(Cl)nc1)C1=C([N+](=O)[O-])CN(CC(=O)OCC(C)C)CN1C | 68% | 100% | 100% | 
7 | CCN(Cc1ccc(Cl)nc1)C1=C([N+](=O)[O-])CN(CC(=O)OC(C)(C)C)CN1C | 47% | 73% | 100% | 
8 | CCN(Cc1ccc(Cl)nc1)C1=C([N+](=O)[O-])CN(CCC(=O)OC)CN1C | 95% | 100% | 100% | 
9 | CCOC(=O)CCN1CC([N+](=O)[O-])=C(N(CC)Cc2ccc(Cl)nc2)N(C)C1 | 93% | 100% | 100% | 
10 | CCCOC(=O)CCN1CC([N+](=O)[O-])=C(N(CC)Cc2ccc(Cl)nc2)N(C)C1 | 100% | 100% | 100% | 0.194 µg/mL (≈ 0.455 µM)
11 | CCN(Cc1ccc(Cl)nc1)C1=C([N+](=O)[O-])CN(CCC(=O)OC(C)C)CN1C | 100% | 100% | 100% | 0.162 µg/mL (≈ 0.38 µM)
12 | CCCCOC(=O)CCN1CC([N+](=O)[O-])=C(N(CC)Cc2ccc(Cl)nc2)N(C)C1 | 78% | 92% | 100% | 
13 | CCC(C)OC(=O)CCN1CC([N+](=O)[O-])=C(N(CC)Cc2ccc(Cl)nc2)N(C)C1 (configuration not stated) | 84% | 100% | 100% | 
14 | CCN(Cc1ccc(Cl)nc1)C1=C([N+](=O)[O-])CN(CCC(=O)OCC(C)C)CN1C | 52% | 100% | 100% | 
15 | CCN(Cc1ccc(Cl)nc1)C1=C([N+](=O)[O-])CN(CCC(=O)OC(C)(C)C)CN1C | 66% | 81% | 100% | 
16 | CCN(Cc1ccc(Cl)nc1)C1=C([N+](=O)[O-])CN(CCCC(=O)OC)CN1C | 79% | 100% | 100% | 
17 | CCOC(=O)CCCN1CC([N+](=O)[O-])=C(N(CC)Cc2ccc(Cl)nc2)N(C)C1 | 85% | 100% | 100% | 
18 | CCCOC(=O)CCCN1CC([N+](=O)[O-])=C(N(CC)Cc2ccc(Cl)nc2)N(C)C1 | 43% | 100% | 100% | 
19 | CCN(Cc1ccc(Cl)nc1)C1=C([N+](=O)[O-])CN(CCCC(=O)OC(C)C)CN1C | 58% | 100% | 100% | 
20 | CCN(Cc1ccc(Cl)nc1)C1=C([N+](=O)[O-])CN(CC(=O)OC)CN1C | 86% | 94% | 100% | 
21 | CCOC(=O)CN1CC([N+](=O)[O-])=C(N(CC)Cc2ccc(Cl)nc2)N(C)C1 | 94% | 100% | 100% | 
22 | CCCOC(=O)CN1CC([N+](=O)[O-])=C(N(CC)Cc2ccc(Cl)nc2)N(C)C1 | 73% | 96% | 100% | 
23 | CCN(Cc1ccc(Cl)nc1)C1=C([N+](=O)[O-])CN(CC(=O)OC(C)C)CN1C | 76% | 85% | 100% | 
24 | CCCCOC(=O)CN1CC([N+](=O)[O-])=C(N(CC)Cc2ccc(Cl)nc2)N(C)C1 | 67% | 75% | 100% | 
25 | O=[N+]([O-])/N=C1\NCCN1Cc1ccc(Cl)nc1 [IMIDACLOPRID] | 100% | 100% | 100% | 0.108 µg/mL (≈ 0.422 µM)
26 | CCN(Cc1ccc(Cl)nc1)/C(=C/[N+](=O)[O-])NC [NITENPYRAM] | 100% | 100% | 100% | 0.129 µg/mL (≈ 0.477 µM)
